# Reference: patent US20160302411A1, “BLENDS AND THEIR USE IN THE CONTROLLING AND/OR TRAPPING OF MOTHS” (BIOFORSK (THE NORWEGIAN INSTITUTE FOR AGRICULTURAL AND …, priority 2013, published 2016)
# Tested on: antennae of mated female C. nigricana
# Assay: GC-EAD electro-antennography, antennal response to synthetic pea volatiles
# Set-up: species or system Cydia nigricana
# Settings: 10 μg in 10 μl hexane on filter paper, puff 10 ml/sec during 0.2 sec
# Procedure: C. nigricana were collected as larvae in the North of Hesse, Germany. The keeping of the insects followed the protocol of Thöming and Saucke (2011). Emerging adults mated in Plexiglas cages (30×30×30 cm) in a climate chamber (18±2° C., 60-70% RH, 18:6h L:D). The moths were provided with 10%-honey water solution and water until the experiment. Antennal recordings and wind tunnel tests were done with five-to-seven-days old mated females. After the experiments, females were dissected to verify their mating status and only mated females were used for analysis.
# The synthetic odour sources were prepared to mimic natural pea flower odour. The quantity, ratio and blend composition was based on the identification and quantification of compounds emitted from detached pea flowers (50 flowers/headspace sample; mean value, n=10) of P. sativum (cv. AVOLA). The synthetic analogues of all 28 identified compounds released from pea plant material (Table 1) were used for combined gas chromatography-electroantennal detection (GC-EAD) analysis.
# GC-EAD was used for antennal recordings on a HP 6890N gas chromatograph, equipped with an HP-5 (30 m×320 μm×0.25 μm; Agilent, Santa Clara, Calif., US) capillary GC column, programmed from 40° C. (hold for 0.5 min) at 8° C./min to 160° C., then 25° C./min to 230° C. (hold for 4 min), and coupled with an electro-antennogram apparatus (Syntech, Hilversum, The Netherlands). The outlet of the GC column was split in a 1:1 ratio between the flame ionization detector (FID) and a pair of cut pea moth antennae which was connected to the EAD. The antennae were mounted in a holder (Syntech) between two silver electrodes, using electrically conductive Gel (Parker, Fairfield, N.J., US). The EAD capillary effluent was delivered to the antennae through a heated transfer line (Syntech) in a glass tube (12 cm×8 mm) in which humidified air was flowing through. The antennal signal and the FID signal were amplified and recorded simultaneously using Syntech software. Each sample injected on the GC contained 5-9 synthetic compounds with different retention times. Each compound was injected at four doses (200 ng, 60 ng, 20 ng, 6 ng), equivalent to 100 ng, 30 ng, 10 ng, 3 ng tested on the antennae. The antennal responses towards compounds and dose rates, respectively, were replicated three to five times, always using a new pair of antennae. […] Only antennae with differences less than 5 μV between the puff before and after the treatment were used for analysis.
row,Compound,antennal response to odour puff (antennal condition test)
1,"C=C/C=C(\C)CCC=C(C)C [DMNT, 4,8-dimethyl-1, (E) 3,7-nonatriene, reference compound]",reproducible antennal responses

# Same assay, conditions: GC-EAD dose response over four doses (FIG. 1)
row,Compound,"increase of antennal response with dose, ANOVA P"
1,C=C/C(C)=C/CC=C(C)C [(E)-β-ocimene],0.0051
2,CC/C=C\CCOC(C)=O [(Z)-3-hexenyl acetate],0.0091
3,CCCCCCO [1-hexanol],0.0003
4,CCC/C=C/C=O [2-(E)-hexenal],0.0139
5,CCC/C=C/CO [(E)-2-hexen-1-ol],0.0049
6,CCCCCCCC=O [octanal],< 0.0001
7,CC/C=C\CCO [(Z)-3-hexenol],0.6578
8,CCCCCCCCC=O [nonanal],0.0067
9,C=C/C(C)=C\CC=C(C)C [(Z)-β-ocimene],0.0252
